Source: the supplement of paper PMC10307832

Key:
Test in all cases: relative viability (nuclei count vs DMSO), 5 days (fraction); higher = more cells survive
Carboplatin + Alpelisib = compound: C1CC(C1)(C(=O)O)C(=O)O.[NH2-].[NH2-].[Pt+2] [Carboplatin] + Cc1nc(NC(=O)N2CCC[C@H]2C(N)=O)sc1-c1ccnc(C(C)(C)C(F)(F)F)c1 [Alpelisib] (partner 2 µM)
Outline: (§1)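 Five library-drug doses in √10 steps were combined with a fixed anchor-drug dose, or a single drug was given alone, by pin tool to lung cancer cell lines in 1536-well plates the day after seeding. Nuclei were stained and counted after 5 days. Relative viability is the nuclei count in treated wells over that in vehicle wells, taken as the median of duplicate plates.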

GSK126 + Trametinib = compound: CC[C@H](C)N1C=C(C2=C(C=C(C=C21)C3=CN=C(C=C3)N4CCNCC4)C(=O)NCC5=C(C=C(NC5=O)C)C)C [GSK126] + CC(=O)Nc1cccc(-n2c(=O)n(C3CC3)c(=O)c3c(Nc4ccc(I)cc4F)n(C)c(=O)c(C)c32)c1 [Trametinib] (partner 0.02 µM)
Outline: as §1

GSK126 + Olaparib = compound: CC[C@H](C)N1C=C(C2=C(C=C(C=C21)C3=CN=C(C=C3)N4CCNCC4)C(=O)NCC5=C(C=C(NC5=O)C)C)C [GSK126] + O=C(c1cc(Cc2n[nH]c(=O)c3ccccc23)ccc1F)N1CCN(C(=O)C2CC2)CC1 [Olaparib] (partner 8 µM)
Outline: as §1

MLN4924 + Lapatinib = compound: NS(=O)(=O)OC[C@@H]1C[C@@H](n2ccc3c(N[C@H]4CCc5ccccc54)ncnc32)C[C@@H]1O [MLN4924] + CS(=O)(=O)CCNCc1ccc(-c2ccc3ncnc(Nc4ccc(OCc5cccc(F)c5)c(Cl)c4)c3c2)o1 [Lapatinib] (partner 2 µM)
Outline: as §1

Cell Line	relative viability (Carboplatin + Alpelisib; first compound 0.08 µM)	relative viability (Carboplatin + Alpelisib; first compound 0.253 µM)	relative viability (Carboplatin + Alpelisib; first compound 0.8 µM)	relative viability (Carboplatin + Alpelisib; first compound 2.53 µM)	relative viability (Carboplatin + Alpelisib; first compound 8 µM)	relative viability (GSK126 + Trametinib; first compound 0.08 µM)	relative viability (GSK126 + Trametinib; first compound 0.253 µM)	relative viability (GSK126 + Trametinib; first compound 0.8 µM)	relative viability (GSK126 + Trametinib; first compound 2.53 µM)	relative viability (GSK126 + Trametinib; first compound 8 µM)	relative viability (GSK126 + Olaparib; first compound 0.08 µM)	relative viability (GSK126 + Olaparib; first compound 0.253 µM)	relative viability (GSK126 + Olaparib; first compound 0.8 µM)	relative viability (GSK126 + Olaparib; first compound 2.53 µM)	relative viability (GSK126 + Olaparib; first compound 8 µM)	relative viability (MLN4924 + Lapatinib; first compound 0.04 µM)	relative viability (MLN4924 + Lapatinib; first compound 0.1265 µM)	relative viability (MLN4924 + Lapatinib; first compound 0.4 µM)	relative viability (MLN4924 + Lapatinib; first compound 1.265 µM)	relative viability (MLN4924 + Lapatinib; first compound 4 µM)
LU99A	0.623	0.584	0.493	0.522	0.365	0.631	0.519	0.547	0.552	0.546	0.245	0.258	0.266	0.243	0.232	0.779	0.339	0.294	0.145	0.151
LXF-289	1.05	1.12	1.01	0.975	0.995	0.66	0.665	0.7	0.611	0.693	1.12	1.11	1.05	1.01	1.02	0.804	0.682	0.416	0.184	0.15
NCI-H23	0.659	0.75	0.623	0.681	0.635	0.434	0.378	0.407	0.551	0.391	0.299	0.361	0.312	0.3	0.263	0.282	0.232	0.202	0.125	0.169
NCI-H322M	0.74	0.574	0.605	0.739	0.701	0.499	0.478	0.482	0.548	0.552	0.818	0.807	0.806	0.829	0.78	0.796	1.01	1.19	0.301	0.285
NCI-H358	1.14	0.881	0.845	0.824	0.671	0.15	0.141	0.158	0.12	0.138	0.705	0.723	0.555	0.613	0.751	0.585	0.654	0.345	0.25	0.236
NCI-H460	0.462	0.424	0.325	0.322	0.0696	0.422	0.153	0.121	0.11	0.195	0.434	0.397	0.388	0.326	0.29	0.657	0.0947	0.0407	0.016	0.0144
NCI-H520	0.894	1.06	0.897	0.908	0.737	0.748	0.665	0.563	0.807	0.817	0.401	0.347	0.311	0.462	0.37	0.594	0.437	0.323	0.17	0.162
